Assay results published in patent US20170066795A1, “SOLID PRODRUG FORMS OF 2'-CHLORO-2'-METHYL URIDINE FOR HCV” (IDENIX PHARMACEUTICALS LLC, priority 2014, published 2017).
≈ marks a conversion by molar mass, not a printed value. Entries after “also recorded” stand apart in the source; their conditions may differ.

Experiments:
Assay type in all cases: physicochemical
[1] = Static stability of amorphous Compound I (ambient conditions; 40° C./75% RH)
Description: Full characterization was carried out on a 100 mg scale test batch (lyophilised from 100% t-butanol).

[2] = Kinetic solubility of amorphous Compound I; settings: kinetic from dmso stock; stated in embodiment text only
[3] = Solubility screen with crystalline material (Form I)
Description: An extensive range of experiments were carried out using either Compound I crystalline Form I or amorphous Compound I as the input material. A set of 32 solvents with diverse properties (including 3 solvent:water mixtures 95:5 v:v) were selected. All solvents were used for the solubility screen but for the subsequent screens a selection of these solvents were used depending on the solubility.
Compound I Form I was weighed into 2 mL vials and treated with increasing amounts of solvent. Solvent was added in 10 or 20 volume portions until the solid dissolved or a maximum volume of 2 mL (80 volumes) had been reached. After each addition of solvent the samples were warmed to 50° C. […] After 3 days of maturation samples were equilibrated to room temperature and small amounts of each sample were filtered through glass frits under vacuum and were analyzed by XRPD. […]
Solutions were stirred at 50° C. for 1 hour then were cooled to 5° C. using a linear cooling rate of 0.1° C./min. […] Observations were made and any solids were analyzed by XRPD as above and solutions were cooled in the freezer for 3 days. Solids were then analyzed by XRPD and samples that remained solutions were left to evaporate slowly through loosened lids at ambient conditions. When solids were produced they were analyzed by XRPD.

SMILES: CC(C)OC(=O)[C@@H](C)N[P@@](=O)(OC[C@H]1O[C@@H](n2ccc(=O)[nH]c2=O)[C@](C)(Cl)[C@@H]1O)Oc1ccccc1 [Amorphous Compound I]
- Static Stability at 40° C./75% RH: time to deliquesce to an oil/gum ([1]; 40° C./75% RH): Deliquesces to an oil/gum in <1 hour,
- Static Stability at 40° C./75% RH: solid form ([1]; 40° C./75% RH, 1, 15 and 44 days): remains amorphous after 1 day,; also recorded: after 15 days amorphous but hint of a peak at 6.5 °20; also recorded: after 44 days remains amorphous except for peak at 6.5 °20
- Static Stability at ambient conditions ([1]; solid form on storage, lyophilised batch): Remains amorphous after 22 days
- solubility kinetic [2]: ~2000 µg/mL (≈ 3.66 mM)

SMILES: CC(C)OC(=O)[C@@H](C)N[P@@](=O)(OC[C@H]1O[C@@H](n2ccc(=O)[nH]c2=O)[C@](C)(Cl)[C@@H]1O)Oc1ccccc1 [Compound I crystalline Form I]
- solubility in most primary alcohols [3]: highly soluble
